Measurements from patent publication US4272529A, “O-Alcoxycarbonylphenyl esters of anthranilic acid with therapeutical activity, method for their preparation and related pharmaceutical composition” (Simes S.p.A., priority 1979, dated 1981).
Values joined by “and” are separate entries in the source; they are usually repeats but may differ in a detail not shown here. Equal entries are not always repeated. Where two headings read alike, the source gives them in different places.

Key:
[1] = test system: carrageenin induced edema in the rat; assay: Inhibition of the carrageenin induced edema in the rat, further series (right rear paw vs left rear paw); type: in vivo; conditions: for Inhibition of the carrageenin induced edema: 3 hours after carrageenin
Protocol: The volume difference between the two paws was compared with the values of a control group. In this case too, the carrageenin was injected one hour after the oral administration of the substances being tested as an aqueous suspension; the edema was evaluated 3 hours after the carrageenin injection.

[2] = test system: adjuvant induced arthritis in the rat; assay: Adjuvant induced arthritis in the developing phase; type: in vivo, Lewis rats; conditions: for Paw volume, injected paw (3rd day) / Paw volume, non injected paw (14th day): unit assumed
Protocol: In the first one, relating to the developing arthritis (Table 4), groups of six Lewis rats have been tested for each dosage; a group was used as the control. Suspensions of the compound being tested were administered for 14 days, starting on the same day of the adjuvant inoculation (0.3 mg of Mycobacterium butyricum in 0.1 ml of mineral oil) in the plantar surface of the right rear paw. The body weights and the volumes of both paws were measured at the third and fourteenth days; the body weights were taken as the toxicity indexes; the paw volumes were used for the calculation of the percent inhibition of the swelling as determined by the adjuvant induced arthritis (D. Walz et al., J. Pharmacol. Exper. Therap., 178, 223, 1971).

[3] = test system: adjuvant induced arthritis in the rat; conditions: for Non injected paw, 18th day, inhibition % / Non injected paw, 18th day, volume: daily 14th to 18th day
Source text: (§1) According to the second experimental model of adjuvant induced arthritis, there were studied the effects of the tested compounds in the disease already developed for 14 days; the substances were daily administered to groups of six rats for each dosage, from the 14th to the 18th day. […] There was also investigated the irritating property of the compound with respect to the gastric tissues in the rat.

[4] = test system: gastric tissues in the rat
Protocol: as §1
The substances were administered as an aqueous suspension and the animals ware sacrificed after either 4 or 24 hours; the stomachs were removed, opened, washed under tap water and examined.
As regards the 4 hour test (Table 7), the following scoring was used, relating to the hemorrhage degree:
1=one or two points of light hemorrhage
2=some points of light hemorrhage
4=very serious hemorrhages.
In this case too the sum of the scores of three rats for each dosage is reported.

[5] = test system: carragenin induced edema in the paw of rat; assay: Carragenin induced edema in the paw of rat, 50% inhibiting oral dose; type: in vivo; conditions: for ED50: 1 hour before carrageenin, 3 to 4 hours after carrageenin
Protocol: The edema was induced by injecting the carrageenin (0.1 ml of the 1% suspension in physiological solution) in the plantar aponeurosis of the rear paw of the rat one hour after the oral administration of the tested substances; the edema inhibition was evaluated, 3 to 4 hours after the carrageenin injection, from the difference between the volumes of the paw before and after the carragenin injection with respect to a group of control animals.

[6] = in vivo; conditions: mouse, po
[7] = Toxicity in the rat; conditions: in vivo
Protocol: In the rat too the toxicity of compound I is very low (4,500 mg/kg).

[8] = test system: mouse; conditions: in vivo
[9] = test system: gastric tissues in the rat; assay: Acute gastric irritation in the rat (24 hours); type: in vivo; conditions: for Acute gastric irritation score: sum of scores (0-4) of three rats
Protocol: The following score scale was used for the 24 hour test (Table 6): 0=no lesion or hemorrhage 1=one or two light lesions with hemorrhage 2=some light lesions with hemorrhage 3=some lesions with hemorrhage. […] 4=very serious lesions with hemorrhage. There were used three rats per each dosage and the sum of the scores was made.

CC(=O)Oc1ccccc1C(=O)O [Acetylsalicylic acid, acetylsalicylic acid]
Inhibition of the carrageenin induced edema ([1]; 50 mg/kg os): 12%
Inhibition of the carrageenin induced edema ([1]; 100 mg/kg os): 35%
Inhibition of the carrageenin induced edema ([1]; 200 mg/kg os): 43%
Inhibition %, injected paw (3rd day) ([2]; 100 mg/kg os): 30%
Inhibition %, non injected paw (14th day) ([2]; 100 mg/kg os): 33%
Paw volume, injected paw (3rd day) ([2]; 100 mg/kg os): 1.65 mL
Paw volume, non injected paw (14th day) ([2]; 100 mg/kg os): 1.49 mL
Inhibition %, injected paw (3rd day) ([2]; 200 mg/kg os): 40%
Inhibition %, non injected paw (14th day) ([2]; 200 mg/kg os): 63%
Paw volume, injected paw (3rd day) ([2]; 200 mg/kg os): 1.53 mL
Paw volume, non injected paw (14th day) ([2]; 200 mg/kg os): 1.26 mL
Non injected paw, 18th day, inhibition % ([3]; 100 mg/kg os): 37%
Non injected paw, 18th day, volume ([3]; 100 mg/kg os): 2.10
Non injected paw, 18th day, inhibition % ([3]; 200 mg/kg os): 47%
Non injected paw, 18th day, volume ([3]; 200 mg/kg os): 1.93
Acute gastric irritation score ([4]; 150 mg/kg os, 4 hours, sum of hemorrhage scores (0-4) of three rats): 7

COC(=O)c1ccccc1OC(=O)c1ccccc1Nc1cccc(C(F)(F)F)c1 [Compound I, N-m-trifluoromethyl-phenylanthranilate of O-methoxycarbonylphenyl]
ED50 [5]: 176 mg/kg and 420 µmol/kg
Anti-inflammatory activity (in words) ([5]; in terms of molar doses): like that of the flufenamic acid and higher than that of the methyl salicylate and that of the equimolar mixture of methyl salicylate and of flufenamic acid
Inhibition of the carrageenin induced edema ([1]; 1 mg/kg os): 0%
Inhibition of the carrageenin induced edema ([1]; 1.5 mg/kg os): 24%
Inhibition of the carrageenin induced edema ([1]; 5 mg/kg os): 21%
Inhibition of the carrageenin induced edema ([1]; 10 mg/kg os): 34%
Inhibition of the carrageenin induced edema ([1]; 25 mg/kg os): 42%
Inhibition of the carrageenin induced edema ([1]; 50 mg/kg os): 52%
ED30 ([1]; Rattus norvegicus, po, os, dose for which a 30% inhibition is obtained, read-out: ED30 (approximately)): ~8 mg/kg
Activity in carrageenin induced edema (in words) ([1]; rat, oral, compared with reference drugs): higher than that of aspirin and phenylbutazone, and lower than that of indomethacin
Inhibition %, injected paw (3rd day) ([2]; 5 mg/kg os): 48%
Inhibition %, non injected paw (14th day) ([2]; 5 mg/kg os): 10%
Paw volume, injected paw (3rd day) ([2]; 5 mg/kg os): 1.5 mL
Paw volume, non injected paw (14th day) ([2]; 5 mg/kg os): 1.64 mL
Inhibition %, injected paw (3rd day) ([2]; 10 mg/kg os): 53%
Inhibition %, non injected paw (14th day) ([2]; 10 mg/kg os): 47%
Paw volume, injected paw (3rd day) ([2]; 10 mg/kg os): 1.53 mL
Paw volume, non injected paw (14th day) ([2]; 10 mg/kg os): 1.47 mL
Inhibition %, injected paw (3rd day) ([2]; 25 mg/kg os): 36%
Inhibition %, non injected paw (14th day) ([2]; 25 mg/kg os): 35%
Paw volume, injected paw (3rd day) ([2]; 25 mg/kg os): 1.79 mL
Paw volume, non injected paw (14th day) ([2]; 25 mg/kg os): 1.67 mL
Increase of the weight of the rats (in words) ([2]; index of poor toxicity): normal
Inhibiting effect in developing arthritis (in words) ([2]; rat, in vivo): strong inhibiting effect
LD50 [6]: 9500 mg/kg and 22800 µmol/kg
LD50 [7]: 4500 mg/kg
Acute toxicity (in words) [8]: relevantly less toxic than the reference substances as well as than their mixture
Non injected paw, 18th day, inhibition % ([3]; 5 mg/kg os): 27%
Non injected paw, 18th day, volume ([3]; 5 mg/kg os): 2.16
Non injected paw, 18th day, inhibition % ([3]; 10 mg/kg os): 46%
Non injected paw, 18th day, volume ([3]; 10 mg/kg os): 1.82
Non injected paw, 18th day, inhibition % ([3]; 25 mg/kg os): 100%
Non injected paw, 18th day, volume ([3]; 25 mg/kg os): 1.04
Activity in already developed arthritis (in words) ([3]; compared with reference drugs): more active than acetylsalicylic acid and than phenylbutazone
Ulcerogenic action (in words) ([4]; rat, in vivo): highly less ulcerogenic than indomethacin and than acetylsalicylic acid
Acute gastric irritation score ([9]; 25 mg/kg os): 1
Acute gastric irritation score ([9]; 50 mg/kg os): 1
Acute gastric irritation score ([9]; 100 mg/kg os): 2
Acute gastric irritation score ([9]; 200 mg/kg os): 1
Acute gastric irritation score ([9]; 400 mg/kg os): 1
Acute gastric irritation score ([9]; 800 mg/kg os): 3
Acute gastric irritation score ([9]; 1600 mg/kg os): 2
Ulcerogenic / gastric irritating action (in words) ([9]; compared with reference drugs): highly less ulcerogenic than indomethacin and than acetylsalicylic acid

O=C(O)c1ccccc1Nc1cccc(C(F)(F)F)c1 [Flufenamic acid, flufenamic acid]
ED50 [5]: 112 mg/kg and 400 µmol/kg
LD50 [6]: 875 mg/kg and 3100 µmol/kg

COc1ccc2c(c1)c(CC(=O)O)c(C)n2C(=O)c1ccc(Cl)cc1 [Indomethacin, indomethacin]
Inhibition of the carrageenin induced edema ([1]; 5 mg/kg os): 40%
Inhibition %, injected paw (3rd day) ([2]; 1 mg/kg os): 39%
Inhibition %, non injected paw (14th day) ([2]; 1 mg/kg os): 32%
Paw volume, injected paw (3rd day) ([2]; 1 mg/kg os): 1.63 mL
Paw volume, non injected paw (14th day) ([2]; 1 mg/kg os): 1.55 mL
Non injected paw, 18th day, inhibition % ([3]; 1 mg/kg os): 38%
Non injected paw, 18th day, volume ([3]; 1 mg/kg os): 2.06
Acute gastric irritation score ([9]; 40 mg/kg os): 5

COC(=O)c1ccccc1O [Methyl salicylate, methyl salicylate]
ED50 [5]: 289 mg/kg and 1900 µmol/kg
LD50 [6]: 1160 mg/kg and 7600 µmol/kg

CCCCC1C(=O)N(c2ccccc2)N(c2ccccc2)C1=O [Phenylbutazone, phenylbutazone]
Inhibition of the carrageenin induced edema ([1]; 50 mg/kg os): 34%
Inhibition %, injected paw (3rd day) ([2]; 25 mg/kg os): 39%
Inhibition %, non injected paw (14th day) ([2]; 25 mg/kg os): 42%
Paw volume, injected paw (3rd day) ([2]; 25 mg/kg os): 1.66 mL
Paw volume, non injected paw (14th day) ([2]; 25 mg/kg os): 1.52 mL
Non injected paw, 18th day, inhibition % ([3]; 25 mg/kg os): 46%
Non injected paw, 18th day, volume ([3]; 25 mg/kg os): 1.95
